In patent US20110081297A1, “Novel Substituted Pyrazoles, 1,2,4-Oxadiazoles, and 1,3,4-Oxadiazoles” (priority 2008, published 2011):

Molecular target: human AD brain tissue homogenate (Homo sapiens, UniProt P05067)
Assay: Tissue homogenate binding assay (competition with [3H]-DMAB)
Details: human AD brain (frontal cortex) homogenate, 1.5 nM [3H]-DMAB radioligand, room temperature, 90 minutes
Protocol: PET radiotracer candidate compounds were then selected based on their high affinity competition with [^3H]-DMAB in binding to AD brain homogenates. These PET radiotracer candidate compounds were tested to determine if they were effective PgP substrates. Those PET radiotracer candidate compounds with little PgP substrate activity were radiolabeled with [^3H] or [^18F] and tested for binding affinity to human AD brain homogenates as well as binding to human non-AD brain homogenates and in autoradiographic studies using human AD and non-AD brain slices. Candidate radioligands were selected based on their strong binding affinity for human AD brain homogenates, and minimal binding to non-AD control homogenates. A low fraction of non-displaceable binding was also an important criterion. Minimization of white matter binding was an important criterion.
Postmortem frozen human brain samples from donors with clinical diagnosis of Alzheimer's diseases (AD) or normal control subjects (non-AD) were purchased from Analytical Biological Services Inc., at 701-4 Cornell Business Park, Wilmington, Del. 19801. Brain homogenates of frontal cortex were prepared, divided into aliquots and stored at −70° C. prior to use.
[^3H]-DMAB was synthesized at a specific activity of ˜80 Ci/mmol. The final concentration of radioligand for tissue homogenate binding assay was 1.5 nM. Brain homogenates were diluted with phosphate buffered saline (PBS) to 0.4 mg/mL from original 10 mg/mL volume and 200 μl was used in assay for a final concentration of […]. Unlabeled test compounds were dissolved in dimethylsulfoxide (DMSO) at 1 mM. Dilution of test compound to various concentrations was made with PBS containing 2% DMSO. Total binding was defined in the absence of competing compound, and non-displaceable binding was determined in the presence of 1 μM unlabeled self block. Compound dilutions (10×) were added into the assay tube (25 μL each/per tube, separately) containing 200 μL brain homogenate dilution, and the tubes were pre-incubated at room temperature for 10 minutes. Then radioligand dilutions (10×) were added into the assay tube (25 μl each/per tube, separately) to a final volume of 250 μL per tube. Incubation was carried out at room temperature (25° C.) for 90 minutes, and then the assay samples were filtered onto GF/C filters using Skatron 12 well harvester, washing on setting 5-5-5 (˜3×2 ml) ice cold buffer (PBS, pH 7.4). GF/C filter papers for the Skatron harvester were pre-soaked in 0.1% BSA for 1 hour at room temperature before use. Filters were punched into scintillation vials and counted in 2 mL Ultima Gold on Perkin Elmer Tri-Carb 2900TR for 1 minute. The data analysis was done with Prism software. […]

human AD brain tissue homogenate, sequence (P05067 whole entry): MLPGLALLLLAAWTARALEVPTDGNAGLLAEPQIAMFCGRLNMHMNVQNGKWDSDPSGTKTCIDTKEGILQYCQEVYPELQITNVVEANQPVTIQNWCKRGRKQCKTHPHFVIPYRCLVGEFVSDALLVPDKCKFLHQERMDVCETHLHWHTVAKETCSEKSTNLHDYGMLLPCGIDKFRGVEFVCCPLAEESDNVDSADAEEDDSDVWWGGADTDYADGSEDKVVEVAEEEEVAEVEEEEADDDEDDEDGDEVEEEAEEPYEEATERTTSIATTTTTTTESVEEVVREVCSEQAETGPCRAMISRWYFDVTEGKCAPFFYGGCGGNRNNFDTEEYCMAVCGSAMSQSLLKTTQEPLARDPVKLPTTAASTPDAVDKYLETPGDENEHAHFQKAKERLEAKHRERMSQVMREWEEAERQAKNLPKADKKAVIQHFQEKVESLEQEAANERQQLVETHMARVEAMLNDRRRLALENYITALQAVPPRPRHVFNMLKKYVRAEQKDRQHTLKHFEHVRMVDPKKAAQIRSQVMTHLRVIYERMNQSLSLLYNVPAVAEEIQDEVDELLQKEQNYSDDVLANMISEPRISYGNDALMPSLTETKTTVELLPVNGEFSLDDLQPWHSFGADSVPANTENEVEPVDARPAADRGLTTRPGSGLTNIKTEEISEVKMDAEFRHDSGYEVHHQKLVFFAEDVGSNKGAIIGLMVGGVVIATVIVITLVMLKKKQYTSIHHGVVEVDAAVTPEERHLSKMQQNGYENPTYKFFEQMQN

IC50 [nM]	SMILES
77	COc1ccc(-c2noc(-c3cnc(F)c(C)c3)n2)cc1
10	COc1ccc(-c2noc(-c3ccc4cc[nH]c4c3)n2)cc1
10	COc1ccc(-c2cc(-c3ccc(N(C)C)cc3)n[nH]2)cc1
50	CN(C)c1ccc(-c2cc(-c3cnc4[nH]ccc4c3)n[nH]2)cc1
